# Where two headings read alike, the source gives them in different places.
# Legend:
# G. lamblia WB strain = assay: In vitro susceptibility assay, G. lamblia trophozoites; format: cell-based, Giardia lamblia; conditions: for Selectivity index, G. lamblia versus macrophages: CC50 J774.2 / IC50 G. lamblia
# Experimental: (§1) G. lamblia WB strain, T. vaginalis GT3 strain, and E. histolytica strain HM1-IMSS were used in all experiments, all parasitic strains were obtained from the Unidad de Investigación Médica en Enfermedades Infecciosas y Parasitarias, Hospital de Pediatría, Instituto Mexicano del Seguro Social. In vitro susceptibility assays to determine IC50 values were performed using a method previously described. For this, 4 × 10^4 G. lamblia; 6 × 10^3 E. histolytica, or 4 × 10^4 T. vaginalis trophozoites were incubated for 48 h at 37 °C with different concentrations of quinoxaline derivatives T-137 to T-170 (0.5 ng/mL to 10 μg/mL) using dimethyl sulfoxide (DMSO) (0.05%) as solvent. Metronidazole and albendazole were used as positive controls, and parasites in the medium without drugs containing DMSO (0.05%) were included as negative controls. At the end of the incubation period, trophozoites were washed and subcultured for another 48 h in a fresh medium without drugs. Then, trophozoites were counted with a haemocytometer and the IC50 was calculated by Probit analysis. Experiments were carried out in triplicate and repeated at least twice.
# [1] = Cytotoxic evaluation, MTT colorimetric assay; format: cell-based; conditions: mouse, J774.2 macrophage cell line, murine macrophages J774.2, read-out: Cytotoxicity (Macrophages J774.2) (CC50)
# Experimental: (§2) The murine macrophage cell line J774.2 was maintained in culture flasks with RPMI 1640 medium supplemented with 10% FBS, and 100 U/mL antibiotic-antifungal mixture (Gibco). Cells were incubated at 37 °C with 5% CO2 and humidity. Murine macrophage cell line J774.2 is maintained at Laboratorio de Estudios Epidemiológicos, Clínicos, Diseños Experimentales e Investigación, Facultad de Ciencias Químicas, Universidad Autónoma “Benito Juárez” de Oaxaca. Macrophages were washed and viability was assessed by the MTT colorimetric assay. In a 96-well microplate, 1 × 10^5 macrophages were added per well and a dose-response assay was performed. Compounds were evaluated using serial dilutions to determine half-maximal cytotoxic concentration (CC50) values in triplicate considering 0.2% DMSO as negative control.
# [2] = tested on: E. histolytica strain HM1-IMSS; assay: In vitro susceptibility assay, E. histolytica trophozoites; format: cell-based, Entamoeba histolytica; conditions: for IC50: Entamoeba histolytica, 48 h, read-out: E. histolytica (IC50 nM), trophozoites, 48 h at 37 °C, subcultured 48 h, Probit analysis
# Experimental: as §1
# T. vaginalis GT3 strain = assay: In vitro susceptibility assay, T. vaginalis trophozoites; format: cell-based, Trichomonas vaginalis
# Experimental: as §1
# [3] = tested on: G. lamblia trophozoites (WB strain); assay: Attachment and viability of G. lamblia trophozoites; format: cell-based, Giardia lamblia; conditions: for Concentration at which detachment and cytotoxicity took impact: 24 h of incubation at 37 °C; for Detachment of trophozoites: cultures incubated with compound
# Experimental: Cytotoxicity of a drug is not the only important characteristic to cope with the pathogenesis of G. lamblia. It is known that the attachment of the trophozoites to the microvillus border of the small intestine is a crucial step for causing disease. […] T-143 and T-146 had the highest cytotoxic effect on giardia trophozoites (Figure 2(A,B), respectively). Detachment of trophozoites in cultures incubated with T-146 or T-161 was undetectable, with their impact directly through cytotoxicity (Figure 2(B)).
# recombinant GlTIM [4] = target: T1, recombinant GlTIM (Giardia intestinalis, UniProt P36186); assay: Inhibition of recombinant GlTIM enzyme activity; format: biochemical, Giardia lamblia
# T1 construct: His-tag with TEV site (pET3a-HisTEV); made in house; host or cells: Escherichia coli BL21(DE3) pLys
# T1 sequence (P36186 whole entry): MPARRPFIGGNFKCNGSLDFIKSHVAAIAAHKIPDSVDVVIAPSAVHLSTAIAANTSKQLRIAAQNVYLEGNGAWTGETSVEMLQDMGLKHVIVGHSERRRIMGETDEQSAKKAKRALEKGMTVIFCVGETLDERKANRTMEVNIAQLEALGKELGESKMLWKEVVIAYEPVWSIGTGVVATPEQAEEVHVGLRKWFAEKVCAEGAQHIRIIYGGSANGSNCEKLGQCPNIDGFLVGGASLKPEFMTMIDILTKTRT
# Experimental: Escherichia coli BL21(DE3) pLys bacteria containing the plasmid pET3a-HisTEV with the gene coding for GlTIM wild type were grown in LB medium supplemented with 0.1 mg/mL ampicillin and incubated at 37 °C[40]. When the cultures reached Abs600 = 0.8, they were induced to express the recombinant enzyme using 0.4 mM IPTG and incubated overnight at 30 °C with shaking at 180 rpm. After induction and growth, the bacteria were collected by centrifugation (6500 rpm, 15 min) and suspended in 40 mL of lysis buffer (pH 8.0) containing 50 mM Tris, 50 mM NaCl, 5 mM β-mercaptoethanol, and 1 mM phenylmethylsulfonyl fluoride (PMSF). The bacterial suspension was disrupted by sonication and centrifuged at 9000 rpm for 1 h, at 4 °C. Protein purification was performed via IMAC using a Profinity Ni^2+ charged resin previously equilibrated with lysis buffer. The soluble protein fraction was mixed with the equilibrated Ni^2+ charged resin and incubated at room temperature with shaking for 30 min. Then, the column was washed with the same buffer (10 column volumes) to remove proteins without the His-tag sequence. The desired proteins were eluted with lysis buffer containing 200 mM imidazole and adjusted to pH 8.0. The purified protein was concentrated using Amicon ultrafiltration units. The purity of the enzymes was analysed via sodium dodecyl sulfate-polyacrylamide gel electrophoresis (16% SDS–PAGE gel) and stained with colloidal Coomassie Brilliant Blue. The enzyme concentration was spectrophotometrically determined (Spectrophotometer Cary 50, Varian Inc.) at 280 nm using the extinction coefficient ε280 = 26,600 M^−1 cm^−1.
# (§3) For the inhibition assays, freshly purified recombinant GlTIM was incubated at 0.2 mg/mL for 2 h at 37 °C in the presence of 500 μM of each n-butyl and iso-butyl quinoxaline-7-carboxylate-1,4-di-N-oxide derivatives. After incubation, the samples were diluted, and 5 ng/mL were taken to measure their enzymatic activity. Enzyme activity was spectrophotometrically measured (Spectrophotometer Cary 50, Agilent Technologies, CA, USA) by following DHAP synthesis with a coupled system that followed the oxidation of NADH at 340 nm[41]. Results are expressed as the percent activity versus each compound at 500 μM, with the enzyme activity without any drug set as 100%. Additionally, GlTIM and HsTIM (separately) were incubated at 0.2 mg/mL for 2 h at 37 °C in the presence of 5, 10, 50, 150, 250, 350, and 500 μM of the T-167 derivative. Results are expressed as the percent activity versus T-167 concentration. All results represent the arithmetic mean of at least four independent experiments.
# human TIM (HsTIM) = target: T2, human TIM (HsTIM) (Homo sapiens, UniProt P60174); assay: Inhibition of recombinant HsTIM enzyme activity; format: biochemical
# T2 construct: His-tag with TEV site (pET3a-HisTEV); made in house; host or cells: E. coli BL21-CodonPlus (DE3)-RIL
# T2 sequence (P60174 whole entry): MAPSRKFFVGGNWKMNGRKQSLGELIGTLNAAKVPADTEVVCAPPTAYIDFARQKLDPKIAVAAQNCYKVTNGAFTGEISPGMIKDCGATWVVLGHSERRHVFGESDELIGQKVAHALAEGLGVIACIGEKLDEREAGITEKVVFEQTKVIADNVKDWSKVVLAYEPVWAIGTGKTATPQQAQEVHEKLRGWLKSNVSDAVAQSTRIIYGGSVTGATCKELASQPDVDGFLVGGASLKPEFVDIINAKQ
# Experimental: Expression of human TIM (HsTIM) was performed by using the E. coli BL21-CodonPlus (DE3)-RIL strain (Stratagene) containing the plasmid pET3a-HisTEV with the gene coding for HsTIM. Expression and purification steps were as above-mentioned for GlTIM. The enzyme concentration was spectrophotometrically determined (Spectrophotometer Cary 50, Varian Inc.) at 280 nm using the extinction coefficient ε280 = 33,460 M^−1 cm^−1.
# as §3
# [5] = tested on: murine macrophage cell line J774.2; assay: Cytotoxic evaluation, MTT colorimetric assay; format: cell-based; conditions: murine macrophages J774.2, read-out: Cytotoxicity (Macrophages J774.2) (CC50)
# Experimental: as §2
# [6] = target: T3, recombinant E. histolytica thioredoxin reductase (EhTRXR) (Entamoeba histolytica, UniProt C4LW95); assay: Inhibition of EhTrxR DTNB reductase activity; format: biochemical; conditions: for inhibition at 100 µM: pH 7, read-out: EhTrxR inhibitory effect (disulphide reductase activity)
# T3 construct: His-tag (pET28a) (N); made in house; host or cells: E. coli BL21 (DE3)
# T3 sequence (C4LW95 1-314): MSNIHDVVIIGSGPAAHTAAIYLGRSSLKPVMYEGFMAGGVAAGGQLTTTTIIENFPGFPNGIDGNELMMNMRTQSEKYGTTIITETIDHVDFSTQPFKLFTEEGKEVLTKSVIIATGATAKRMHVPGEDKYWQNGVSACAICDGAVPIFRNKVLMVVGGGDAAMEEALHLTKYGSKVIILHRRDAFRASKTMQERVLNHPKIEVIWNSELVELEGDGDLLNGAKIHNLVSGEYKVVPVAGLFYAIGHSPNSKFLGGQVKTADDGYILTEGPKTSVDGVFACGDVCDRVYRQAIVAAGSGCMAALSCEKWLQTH
# Experimental: Recombinant E. histolytica thioredoxin reductase (EhTRXR) was expressed in E. coli BL21 (DE3) as His-tag (N-terminal) recombinant proteins using pET28a vector, and it was purified using IMAC as previously described. 5,5′-Dithiobis(2-nitrobenzoic acid) (DTNB) reductase activity was measured by monitoring the production of thionitrobenzoate at 405 nm in a reaction mixture comprising 50 mM potassium phosphate, pH 7.0, 2 mM EDTA, 300 µM NADPH, 5 mM DTNB, and 0.1 µM EhTRXR. Activity was calculated using the molar extinction coefficient at 405 nm of 13.6 mM^−1cm^− 1 and considering that 1 mol of NADPH yields 2 mol of thionitrobenzoate. The enzyme assays were performed at 30 °C, in a final volume of 50 μL, and using a Multiskan Ascent one-channel vertical light path filter photometer (Thermo Electron Co.). All results represent the arithmetic mean of at three independent experiments.
# recombinant GlTIM [7] = target: T1, recombinant GlTIM; set-up: method as in PMID 25223993; conditions: cited from earlier work
# [8] = target: T3, recombinant E. histolytica thioredoxin reductase (EhTRXR); set-up: method as in earlier work; conditions: ref 34 (Sóto-Sánchez et al. 2020); cited from earlier work
# [9] = Giardia duodenalis, 48 h, read-out: G. lamblia (IC50 nM), trophozoites, 48 h at 37 °C, subcultured 48 h, Probit analysis
# [10] = Trichomonas vaginalis, GT3, 48 h, read-out: T. vaginalis (IC50 nM), trophozoites, 48 h at 37 °C, subcultured 48 h, Probit analysis
# [11] = read-out: G. lamblia (IC50 nM), trophozoites, 48 h at 37 °C, subcultured 48 h, Probit analysis
# [12] = read-out: T. vaginalis (IC50 nM), trophozoites, 48 h at 37 °C, subcultured 48 h, Probit analysis
SMILES,IC50 (G. lamblia WB strain; [9]) [nM],IC50 [2] [nM],IC50 (T. vaginalis GT3 strain; [10]) [nM],Concentration at which detachment and cytotoxicity took impact [3] [µM],IC50 (G. lamblia WB strain; [11]) [nM],"inhibition at 500 µM (recombinant GlTIM [4]; 500 µM compound, 2 h at 37 °C) [%]",CC50 [5] [µM],IC50 (T. vaginalis GT3 strain; [12]) [nM],inhibition at 100 µM [6] [%],other results
CC(=O)c1c(-c2ccccc2)[n+]([O-])c2ccc(C(=O)OCC(C)C)cc2[n+]1[O-] [Compound T-168],39.5 ± 2.63,50 ± 2.63,150 ± 14.5,,,,,,,CC50 [1]: 28.5 ± 1.69 µM
CC(=O)c1c(C(F)(F)F)[n+]([O-])c2ccc(C(=O)OCC(C)C)cc2[n+]1[O-] [Compound T-167],< 30,64.5 ± 5.38,< 90,25,25.5 ± 1.34,99.7,25.4 ± 0.0815,90 ± 6.72,,"Selectivity index, G. lamblia versus macrophages (G. lamblia WB strain): 994 fold; inhibition at 10 µM (recombinant GlTIM [4]; 10 µM T-167, 2 h at 37 °C): > 20%; GlTIM inhibition (recombinant GlTIM [4]; 500 µM compound, 2 h at 37 °C): wholly inhibited; GlTIM residual activity (recombinant GlTIM [4]; 50 to 350 µM T-167): ~25%; Decrease of GlTIM enzyme activity (recombinant GlTIM [4]; <10 to 50 µM T-167): above 70%; Effect on HsTIM enzyme activity (human TIM (HsTIM); 10 µM T-167, 2 h at 37 °C): unaffected; HsTIM retained activity (human TIM (HsTIM); 500 µM T-167, when GlTIM activity is completely depleted): more than 75%; HsTIM loss of activity (human TIM (HsTIM); 50 to 350 µM T-167): no more than 10%"
CCCCOC(=O)c1ccc2c(c1)[n+]([O-])c(C(=O)Nc1ccc(Cl)cc1)c(C)[n+]2[O-] [Compound T-143],< 30,15.1 ± 2.33,< 90,25,29.1 ± 5.83,43.7,50.3 ± 2.8,45.2 ± 6.99,50 to 75,"Selectivity index, G. lamblia versus macrophages (G. lamblia WB strain): 1726 fold; Selectivity index, E. histolytica versus macrophages ([2]; CC50 J774.2 / IC50 E. histolytica): 3321 fold; Selectivity index, T. vaginalis versus macrophages (T. vaginalis GT3 strain; CC50 J774.2 / IC50 T. vaginalis): 1112 fold"
COc1ccc2[nH]c([S+]([O-])Cc3ncc(C)c(OC)c3C)nc2c1 (stereo not drawn) [omeprazole],,,,,,,,,,Concentration attaining 70% inhibition of GlTIM (recombinant GlTIM [7]): about 300 µM; Concentration wholly inhibiting GlTIM activity (recombinant GlTIM [7]): 750 µM
Cc1c(C(=O)Nc2ccc(Cl)cc2)[n+]([O-])c2cc(C(=O)OCC(C)C)ccc2[n+]1[O-] [Compound T-161],120 ± 1.16,29.1 ± 3.5,137 ± 3.5,25,,19.7,,,> 75,"Detachment of trophozoites [3]: undetectable; IC50 ([6]; DTNB reductase activity, 30 °C, pH 7.0): 18 µM"
CCCCOC(=O)c1ccc2c(c1)[n+]([O-])c(C(=O)OCC)c(C(F)(F)F)[n+]2[O-] [Compound T-146],< 30,64.7 ± 3.73,~100,25,26.1 ± 6.22,37.3,> 200,102 ± 2.49,50 to 75,Detachment of trophozoites [3]: undetectable
CCOC(=O)c1c(C(F)(F)F)[n+]([O-])c2ccc(C(=O)OC(C)C)cc2[n+]1[O-] [Compound T-116],,,,,,,,,,IC50 [8]: 28 µM
CC(=O)c1c(Nc2ccc(C)cc2C)[n+]([O-])c2ccc(C(=O)OCC(C)C)cc2[n+]1[O-] [Compound T-170],109 ± 3.55,33.1 ± 2.36,130 ± 8.27,,,,,,,CC50 [1]: > 200 µM

# Source: paper PMC11523249, “Expanding the antiprotozoal activity and the mechanism of action of n-butyl and iso-butyl ester of quinoxaline-1,4-di-N-oxide derivatives against Giardia lamblia, Trichomonas vaginalis, and Entamoeba histolytica. An in vitro and in silico approach” (Journal of Enzyme Inhibition and Medicinal Chemistry, 2024)
